Assay results: patent publication US20230099344A1, “COMPOUNDS AND METHODS FOR THE TARGETED DEGRADATION OF IRAK-4” (Arvinas Operations, Inc., priority 2021, published 2023)

Tests used:
Format in all cases: cell-based
IRAK-4 [1] = biological target: T1, IRAK-4 (Homo sapiens, UniProt Q9NWZ3); assay: IRAK-4 ELISA, OCI-Ly10 degradation; design: endogenous in cells; conditions: treated overnight
T1 sequence (Q9NWZ3 1-460): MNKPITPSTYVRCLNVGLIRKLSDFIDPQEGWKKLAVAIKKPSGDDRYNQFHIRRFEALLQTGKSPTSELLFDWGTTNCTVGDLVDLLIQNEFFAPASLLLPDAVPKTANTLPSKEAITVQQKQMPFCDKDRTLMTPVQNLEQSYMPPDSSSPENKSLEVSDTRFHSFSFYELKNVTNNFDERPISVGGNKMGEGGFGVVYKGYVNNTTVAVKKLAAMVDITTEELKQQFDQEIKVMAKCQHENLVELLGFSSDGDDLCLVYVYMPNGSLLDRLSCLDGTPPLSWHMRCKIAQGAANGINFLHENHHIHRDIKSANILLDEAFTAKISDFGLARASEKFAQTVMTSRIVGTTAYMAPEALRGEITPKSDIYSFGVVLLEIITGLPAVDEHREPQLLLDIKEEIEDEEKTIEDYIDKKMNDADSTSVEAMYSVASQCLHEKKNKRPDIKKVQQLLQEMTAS
Description: Reagents: Human IRAK-4 Matched Antibody Pair Kit (Abcam ab218182) and ELISA Accessory Pack (Abcam ab210905).
Cell Treatment and Lysis:
1. OCI-Ly10: 200,000 cells are seeded at 1×10^6/ml in 96-well U-bottom plates 200 ul per well, treated with compound the same day. Incubate overnight. 2. PBMC: 800,000 cells are seeded at 2×10^6/ml in 96-well U-bottom deep-well plates, 400 ul per well, treated with compound the same day. Incubate overnight.
Cell lysate is collected and analyzed by ELISA for IRAK-4 levels.

IL6 [2] = assay: LPS stimulated IL6 inhibition assay in PBMC; conditions: human PBMCs, LPS stimulation, compound overnight, IL6 by MSD after 24 hrs; for Dmax: read-out: LPS Stim IL6 inhibition Dmax; for IC50: read-out: LPS stim IL6 inhibition IC50
Outline: (§1)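 Seed human PBMC, 2.0×10^6 cells/mL → compound overnight → stimulant (IL-1β, LPS or R848) at per-donor EC50 → 24 hrs → media to MSD for IL6/IL8.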

IL6 [3] = assay: R848 stimulated IL6 inhibition assay in PBMC; conditions: human PBMCs, R848 stimulation, compound overnight, IL6 by MSD after 24 hrs; for Dmax: Homo sapiens, 24 h, read-out: R848 stim IL6 inhibition Dmax; for IC50: read-out: R848 stim IL6 inhibition IC50
Outline: as §1

IRAK-4 [4] = biological target: T1, IRAK-4; assay: IRAK-4 ELISA, PBMC degradation; design: endogenous in cells; host or cells: PBMC; conditions: treated overnight
Outline: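 OCI-Ly10 cells (1×10^6/ml) or PBMC (2×10^6/ml) treated with compound on the day of seeding and incubated overnight. IRAK-4 protein remaining in cell lysates quantified by sandwich ELISA.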

Row | Structure (SMILES) | Dmax (IRAK-4 [1]; OCI-Ly10, OCI-Ly10 cells) [%] | DC50 (IRAK-4 [1]; OCI-Ly10 cells) [nM] | Dmax (IL6 [2]; Homo sapiens, PBMC, 24 h) [%] | IC50 (IL6 [2]; Homo sapiens, PBMC, 24 h) [nM] | Dmax (IL6 [3]; PBMC) [%] | IC50 (IL6 [3]; PBMC) [nM] | DC50 (IRAK-4 [4]) [nM] | Dmax (IRAK-4 [4]) [%] | PBMC DC90 (IRAK-4 [4]) | LPS Stim IL6 inhibition Dmax (IL6 [2]) | IC50 (IL6 [2]) [nM] | R848 stim IL6 inhibition Dmax (IL6 [3]) | IC50 (IL6 [3]) [nM]
1 | O=C1CCC(N2C(=O)c3ccc(OCCOCCN4CCC(n5cc6cc(NC(=O)c7cnn8cccnc78)c(OCC7CC7)cc6n5)CC4)cc3C2=O)C(=O)N1 (centres unmarked) [Example 121] | ≥ 90 | 10 to 50 |  |  |  |  |  |  |  |  |  |  | 
2 | O=C1CCC(N2Cc3cc(N4CC(O[C@H]5CC[C@H](n6cc7cc(NC(=O)c8cnn9cccnc89)c(OCC8CC8)cc7n6)CC5)C4)ccc3C2=O)C(=O)N1 (some centres unmarked) [Example 423, N-[6-(cyclopropylmethoxy)-2-[(1r,4r)-4-({1-[2-(2,6-dioxopiperidin-3-yl)-1-oxo-2,3-dihydro-1H-isoindol-5-yl]azetidin-3-yl}oxy)cyclohexyl]-2H-indazol-5-yl]pyrazolo[1,5-a]pyrimidine-3-carboxamide] |  |  | 80 to 90 | 10 to 50 | ≥ 90 | 10 to 50 | 1 to 5 | ≥ 90 | B (B represents a DC90 value ≥10.0 nM and <25.0 nM) |  |  |  | 
3 | CC(C)Oc1cc2nn([C@H]3CC[C@H](OC4CN(c5ccc6c(c5)CN(C5CCC(=O)NC5=O)C6=O)C4)CC3)cc2cc1NC(=O)c1cnn2cccnc12 (some centres unmarked) [Example 424] |  |  | < 70 | < 10 | 80 to 90 | < 10 | 1 to 5 | 80 to 90 | B (B represents a DC90 value ≥10.0 nM and <25.0 nM) |  |  |  | 
4 | O=C1CCC(N2C(=O)c3ccc(N4CC[C@@H](O[C@H]5CC[C@@H](n6cc7cc(NC(=O)c8cnn9cccnc89)c(OCC8CC8)cc7n6)CC5)C4)cc3C2=O)C(=O)N1 (some centres unmarked) [Example 425] |  |  | 70 to 80 | 50 to 100 | 70 to 80 | 50 to 100 | ≥ 10 |  | D (D represents a DC90 value ≥50 nM) |  |  |  | 
5 | O=C1CCC(N2C(=O)c3ccc(N4CC[C@@H](O[C@H]5CC[C@H](n6cc7cc(NC(=O)c8cnn9cccnc89)c(OCC8CC8)cc7n6)CC5)C4)cc3C2=O)C(=O)N1 (some centres unmarked) [Example 426] |  |  | < 70 | 50 to 100 | 80 to 90 | 50 to 100 | ≥ 10 | ≥ 90 | D (D represents a DC90 value ≥50 nM) |  |  |  | 
6 | O=C1CCC(N2C(=O)c3ccc(N4CC[C@H](O[C@H]5CC[C@@H](n6cc7cc(NC(=O)c8cnn9cccnc89)c(OCC8CC8)cc7n6)CC5)C4)cc3C2=O)C(=O)N1 (some centres unmarked) [Example 427] |  |  | 70 to 80 | < 10 | < 70 | 10 to 50 | ≥ 10 |  | D (D represents a DC90 value ≥50 nM) |  |  |  | 
7 | O=C1CCC(N2C(=O)c3ccc(N4CC[C@H](O[C@H]5CC[C@@H](n6cc7cc(NC(=O)c8cnn9cccnc89)c(OCC8CC8)cc7n6)CC5)C4)cc3C2=O)C(=O)N1 (some centres unmarked) [Example 428] |  |  |  |  |  |  | 1 to 5 | ≥ 90 | B (B represents a DC90 value ≥10.0 nM and <25.0 nM) | D (D represents a Ymax value <70) | 10 to 50 | A (A represents a Ymax value ≥90) | 10 to 50
8 | O=C1CCC(N2C(=O)c3ccc(C4CCN(C[C@H]5CC[C@H](n6cc7cc(NC(=O)c8cnn9cccnc89)c(OCC8CC8)cc7n6)CC5)CC4)cc3C2=O)C(=O)N1 (some centres unmarked) [Example 429, N-[6-(cyclopropylmethoxy)-2-[(1r,4r)-4-({4-[2-(2,6-dioxopiperidin-3-yl)-1,3-dioxo-2,3-dihydro-1H-isoindol-5-yl]piperidin-1-yl}methyl)cyclohexyl]-2H-indazol-5-yl]pyrazolo[1,5-a]pyrimidine-3-carboxamide] |  |  | 70 to 80 | < 10 | ≥ 90 | 10 to 50 | < 1 | ≥ 90 | A (A represents a DC90 value <10.0 nM) |  |  |  | 
9 | O=C1CCC(N2C(=O)c3ccc(N4CCN(C[C@H]5CC[C@H](n6cc7cc(NC(=O)c8cnn9cccnc89)c(OCC(F)F)cc7n6)CC5)CC4)cc3C2=O)C(=O)N1 (some centres unmarked) [Example 430] |  |  | 70 to 80 | 10 to 50 | ≥ 90 | 10 to 50 | 1 to 5 | ≥ 90 | A (A represents a DC90 value <10.0 nM) |  |  |  | 
10 | CC(C)Oc1cc2c(cc1NC(=O)c1cnn3cccnc13)CN([C@H]1CC[C@H](CN3CCN(c4ccc5c(c4)C(=O)N(C4CCC(=O)NC4=O)C5=O)CC3)CC1)C2=O (some centres unmarked) [Example 431] |  |  | 70 to 80 | 10 to 50 | ≥ 90 | 10 to 50 | 1 to 5 | ≥ 90 | A (A represents a DC90 value <10.0 nM) |  |  |  | 
11 | CC(C)Oc1cc2c(cc1NC(=O)c1cnn3cccnc13)CN([C@H]1CC[C@H](CN3CCC(c4ccc5c(c4)C(=O)N(C4CCC(=O)NC4=O)C5=O)CC3)CC1)C2=O (some centres unmarked) [Example 432] |  |  | 70 to 80 | 10 to 50 | ≥ 90 | 10 to 50 | 1 to 5 | ≥ 90 | A (A represents a DC90 value <10.0 nM) |  |  |  | 
12 | O=C1CCC(N2Cc3ccc(N4CCN(C[C@H]5CC[C@H](n6cc7cc(NC(=O)c8cnn9cccnc89)c(OCC(F)F)cc7n6)CC5)CC4)cc3C2=O)C(=O)N1 (some centres unmarked) [Example 433] |  |  | 80 to 90 | < 10 | ≥ 90 | < 10 | < 1 | ≥ 90 | A (A represents a DC90 value <10.0 nM) |  |  |  | 
